Here are results for five compounds from US4385175A, “Esters of retinoic acid and azetidinone derivatives” (Bristol-Myers Company, priority 1982, dated 1983).

Like-named read-outs stand apart in the source and are kept apart here.

This assay concerns squamous metoplasia and keratinization in organ cultures of trachea derived from vitamin A-deficient hamsters. Kind of assay: inhibition of squamous metaplasia and keratinization (reversal of keratinization) in tracheal organ cultures. Type of assay: cell-based, hamster. Conditions: Mesocricetus auratus, read-out: Reversal of Keratinization ED50.
Where [1] appears, read: median effective dose: dose required for reversal of keratinization of 50% of the explants, by probit analysis, hamster trachea organ culture.

In the case of `CC1=C(/C=C/C(C)=C/C=C/C(C)=C/C(=O)OCc2ccccc2N2C(=O)[C@@H](N=[N+]=[N-])[C@H]2/C=C/c2ccccc2)C(C)(C)CCC1` (relative stereo) [Compound IV], under setting [1], the EC50 is 407 pM.

`CC1=C(/C=C/C(C)=C/C=C/C(C)=C/C(=O)OCc2cccc3c2N2C(=O)[C@@H](NC(=O)Cc4ccccc4)[C@H]2CO3)C(C)(C)CCC1` (relative stereo) [Compound VI]: under setting [1], the EC50 was found to be 390 pM.

Take `CC1=C(/C=C/C(C)=C/C=C/C(C)=C/C(=O)OCc2ccccc2N2C(=O)[C@@H](NC(=O)Cc3ccccc3)[C@H]2/C=C/c2ccccc2)C(C)(C)CCC1` (relative stereo) [Compound V]: the EC50 under setting [1] is 198 pM.

Take `CC1=C(/C=C/C(C)=C/C=C/C(C)=C/C(=O)OC(C(=O)c2ccccn2)c2ccccn2)C(C)(C)CCC1` (centres unmarked) [Compound VII]: under setting [1], the EC50 was 310 pM.

Consider `CC1=C(/C=C/C(C)=C/C=C/C(C)=C/C(=O)O)C(C)(C)CCC1` [β-All-trans-retinoic acid, reference compound], for which the EC50 was determined as 115 pM.
